Converted amounts (≈) assume the structure as drawn.
Experiments:
Staphylococcus aureus [1] = assay: Antibacterial activity against methicillin-resistant Staphylococcus aureus USA300 NRS384 assessed as inhibition of bacterial growth measured after 18 to 20 hrs by broth microdilution method; format: functional; conditions: time 18-20 hrs
Escherichia coli [2] = assay: Antibacterial activity against Escherichia coli JW55031 harboring toIC efflux mutant assessed as inhibition of bacterial growth measured after 18 to 20 hrs by broth microdilution method; format: functional; conditions: time 18-20 hrs
Escherichia coli [3] = assay: Antibacterial activity against wild type Escherichia coli BW25113 assessed as inhibition of bacterial growth measured after 18 to 20 hrs by broth microdilution method; format: functional; conditions: time 18-20 hrs
Listeria monocytogenes = assay: Ratio of MBC to MIC for Listeria monocytogenes ATCC 19111 assessed as inhibition of bacterial growth measured after 18 to 20 hrs by CLSI protocol based broth microdilution method; format: functional; conditions: time 18-20 hrs
Enterococcus faecium [4] = assay: Ratio of MBC to MIC for vancomycin-resistant Enterococcus faecium ATCC 700221 assessed as inhibition of bacterial growth measured after 18 to 20 hrs by CLSI protocol based broth microdilution method; format: functional; conditions: time 18-20 hrs
Staphylococcus aureus [5] = assay: Ratio of MBC to MIC against methicillin-sensitive Staphylococcus aureus ATCC 6538 assessed as inhibition of bacterial growth measured after 18 to 20 hrs by CLSI broth microdilution method; format: functional; conditions: time 18-20 hrs
Staphylococcus aureus [6] = assay: Antibacterial activity against vancomycin-resistant Staphylococcus aureus 10 assessed as inhibition of bacterial growth measured after 18 to 20 hrs by CLSI protocol based broth microdilution method; format: functional; conditions: time 18-20 hrs
[7] = test system: Staphylococcus epidermidis; assay: Ratio of MBC to MIC for methicillin-resistant Staphylococcus epidermidis NRS101 assessed as inhibition of bacterial growth measured after 18 to 20 hrs by CLSI protocol based broth microdilution method; format: functional; conditions: time 18-20 hrs
Staphylococcus aureus [8] = assay: Antibacterial activity against vancomycin-resistant Staphylococcus aureus 12 assessed as inhibition of bacterial growth measured after 18 to 20 hrs by CLSI protocol based broth microdilution method; format: functional; conditions: time 18-20 hrs
[9] = test system: Staphylococcus epidermidis; assay: Antibacterial activity against methicillin-resistant Staphylococcus epidermidis NRS101 assessed as inhibition of bacterial growth measured after 18 to 20 hrs by CLSI protocol based broth microdilution method; format: functional; conditions: time 18-20 hrs
Enterococcus faecium [10] = assay: Antibacterial activity against vancomycin-resistant Enterococcus faecium ATCC 700221 assessed as inhibition of bacterial growth measured after 18 to 20 hrs by CLSI protocol based broth microdilution method; format: functional; conditions: time 18-20 hrs
Streptococcus pneumoniae [11] = assay: Antibacterial activity against cephalosporin-resistant Streptococcus pneumoniae ATCC 51916 assessed as inhibition of bacterial growth measured after 18 to 20 hrs by CLSI protocol based broth microdilution method; format: functional; conditions: time 18-20 hrs
Staphylococcus aureus [12] = assay: Ratio of MBC to MIC against methicillin-sensitive Staphylococcus aureus NRS107 assessed as inhibition of bacterial growth measured after 18 to 20 hrs by CLSI protocol based broth microdilution method; format: functional; conditions: time 18-20 hrs
Staphylococcus aureus [13] = assay: Bactericidal activity against methicillin-resistant Staphylococcus aureus USA400 NRS123 assessed as log reduction in viable bacteria count at 5 times MIC incubated for 2 hrs in soy broth followed by incubation for 18 to 20 hrs on agar plate by time kill assay; format: functional; conditions: time 20-22 hrs
Staphylococcus aureus [14] = assay: Bactericidal activity against methicillin-resistant Staphylococcus aureus USA400 NRS123 assessed as post-antibiotic effect at 5 times MIC incubated for 2 hrs followed by compound wash-out by viable plate count method; format: functional
[15] = Selectivity index, ratio of maximum non-toxic concentration for human Caco-2 cells to MIC for methicillin-resistant Staphylococcus aureus USA500 NRS385; format: toxicity
[16] = Selectivity index, ratio of maximum non-toxic concentration for human Caco-2 cells to MIC for methicillin-resistant Staphylococcus aureus USA400 NRS123; format: toxicity
[17] = Selectivity index, ratio of maximum non-toxic concentration for human Caco-2 cells to MIC for methicillin-resistant Staphylococcus aureus NRS119; format: toxicity
[18] = Selectivity index, ratio of maximum non-toxic concentration for human Caco-2 cells to MIC for methicillin-resistant Staphylococcus aureus USA300 NRS384; format: toxicity
Staphylococcus aureus [19] = assay: Antibacterial activity against methicillin-resistant Staphylococcus aureus USA400 NRS123 infected in mouse J774 cells assessed as reduction in intracellular bacterial burden at 2 x MIC measured after 24 hrs relative to control; format: functional
Staphylococcus aureus [20] = assay: Antibacterial activity against methicillin-resistant Staphylococcus aureus USA400 NRS123 infected in mouse J774 cells assessed as reduction in intracellular bacterial burden at 4 x MIC measured after 24 hrs relative to control; format: functional
[21] = Half life in human liver microsomes at 0.1 uM in presence of NADPH by LC/MS/MS analysis
Streptococcus pneumoniae [22] = assay: Ratio of MBC to MIC for methicillin-resistant Streptococcus pneumoniae ATCC 700677 assessed as inhibition of bacterial growth measured after 18 to 20 hrs by CLSI protocol based broth microdilution method; format: functional; conditions: time 18-20 hrs
Staphylococcus aureus [23] = assay: Bactericidal activity against methicillin-resistant Staphylococcus aureus USA400 NRS123 assessed as eradication of bacterial count at 5 times MIC incubated for 8 hrs in soy broth followed by incubation for 18 to 20 hrs on agar plate by time kill assay; format: functional; conditions: time 26-28 hrs
[24] = Selectivity index, ratio of maximum non-toxic concentration for human Caco-2 cells to MIC for methicillin-resistant Staphylococcus aureus USA700 NRS386; format: toxicity
Staphylococcus aureus [25] = assay: Antibacterial activity against methicillin-resistant Staphylococcus aureus USA400 NRS123 infected in mouse J774 cells assessed as log reduction in intracellular bacterial burden at 2 x MIC measured after 24 hrs; format: functional
Staphylococcus aureus [26] = assay: Antibacterial activity against methicillin-resistant Staphylococcus aureus USA400 NRS123 infected in mouse J774 cells assessed as log reduction in intracellular bacterial burden at 4 x MIC measured after 24 hrs; format: functional
[27] = Intrinsic clearance in human liver microsomes at 0.1 uM in absence of NADPH measured upto 60 mins by LC/MS/MS analysis; format: ADME, Microsome; conditions: read-out: CLH
[28] = Half life in human liver microsomes at 0.1 uM in absence of NADPH by LC/MS/MS analysis; format: ADME, Microsome
physchem = conditions: phosphate-buffered saline, pH 7.4
in vitro = conditions: human, liver microsomes
Staphylococcus aureus [29] = assay: microbe, parasite or virus in culture; conditions: NRS107
Staphylococcus aureus [30] = assay: microbe, parasite or virus in culture; conditions: USA400 NRS123
Staphylococcus aureus [31] = assay: microbe, parasite or virus in culture; conditions: USA500 NRS385
Staphylococcus aureus [32] = assay: microbe, parasite or virus in culture; conditions: USA700 NRS386
Enterococcus faecalis = assay: microbe, parasite or virus in culture; conditions: ATCC 51299

C/C(=N\NC(=N)N)c1ccc(Nc2nc(-c3ccc(C)cc3)cs2)cc1
MIC (Staphylococcus aureus [1]): 2 µg/mL (≈ 5.49 µM) | MIC (Escherichia coli [2]): 4 µg/mL (≈ 11 µM) | MIC (Escherichia coli [3]): 16 µg/mL (≈ 43.9 µM) | Ratio (Listeria monocytogenes): 1 | Ratio (Enterococcus faecium [4]): 1 | Ratio (Staphylococcus aureus [5]): 1 | MBC (Staphylococcus aureus [6]): 2 µg/mL (≈ 5.49 µM) | MIC (Staphylococcus aureus [6]): 2 µg/mL (≈ 5.49 µM) | Ratio [7]: 1 | MBC (Staphylococcus aureus [8]): 2 µg/mL (≈ 5.49 µM) | MIC (Staphylococcus aureus [8]): 2 µg/mL (≈ 5.49 µM) | MBC [9]: 1 µg/mL (≈ 2.74 µM) | MIC [9]: 1 µg/mL (≈ 2.74 µM) | MBC (Enterococcus faecium [10]): 4 µg/mL (≈ 11 µM) | MIC (Enterococcus faecium [10]): 2 µg/mL (≈ 5.49 µM) | MBC (Streptococcus pneumoniae [11]): 4 µg/mL (≈ 11 µM) | MIC (Streptococcus pneumoniae [11]): 2 µg/mL (≈ 5.49 µM) | Ratio (Staphylococcus aureus [12]): 1 | Activity (Staphylococcus aureus [13]): 3 log10CFU/ml | PAE (Staphylococcus aureus [14]): 6 h | selectivity ratio [15]: 16 | selectivity ratio [16]: 16 | selectivity ratio [17]: 16 | selectivity ratio [18]: 16 | inhibition (INH) (Staphylococcus aureus [19]): 93% | inhibition (INH) (Staphylococcus aureus [20]): 99% | half-life at 0.1 µM [21]: 1.96 h | Ratio (Streptococcus pneumoniae [22]): 1 | Activity (Staphylococcus aureus [23]): 100% | selectivity ratio [24]: 16 | Activity (Staphylococcus aureus [25]): 1.19 log10CFU/ml | Activity (Staphylococcus aureus [26]): 2.49 log10CFU/ml | microsomal CLint at 0.1 µM [27]: 27.3 µL/min/mg | half-life at 0.1 µM [28]: 4.23 h | solubility kinetic at 2 h (physchem): 26.7 µM (≈ 9.73 µg/mL) | microsomal CLint at 1 h, 0.1 µM (in vitro): 58.9 µL/min/mg | MBC (Staphylococcus aureus [29]): 2 µg/mL (≈ 5.49 µM) | MIC (Staphylococcus aureus [29]): 2 µg/mL (≈ 5.49 µM) | MBC (Staphylococcus aureus [30]): 2 µg/mL (≈ 5.49 µM) | MIC (Staphylococcus aureus [30]): 2 µg/mL (≈ 5.49 µM) | MBC (Staphylococcus aureus [31]): 2 µg/mL (≈ 5.49 µM) | MIC (Staphylococcus aureus [31]): 2 µg/mL (≈ 5.49 µM) | MBC (Staphylococcus aureus [32]): 2 µg/mL (≈ 5.49 µM) | MIC (Staphylococcus aureus [32]): 2 µg/mL (≈ 5.49 µM) | MBC (Enterococcus faecalis): 4 µg/mL (≈ 11 µM) | MIC (Enterococcus faecalis): 2 µg/mL (≈ 5.49 µM)

— ChEMBL document CHEMBL4706519, “Evaluation of N-phenyl-2-aminothiazoles for treatment of multi-drug resistant and intracellular Staphylococcus aureus infections” (Eur J Med Chem, 2020)
